# Data published in patent US20240270698A2, “NOVEL PYRIMIDINE DERIVATIVE AND USE THEREOF” (KOREA RESEARCH INSTITUTE OF CHEMICAL TECHNOLOGY, priority 2019, published 2024).
# Legend:
# HepG2 cancer cells = assay: Anticancer activity, cell viability by CCK-8, HepG2; assay type: cell-based; conditions: HepG2, 10 μM, 72 hours
# Protocol: (§1) Compounds 1 to 119 synthesized in Example 1 according to the present disclosure were assayed for inhibitory activity against MLK3/LRRK2 enzymes and anticancer activity against HepG2/H[…] cancer cells, and the results are summarized in Table 1, below. Assay for anticancer activity was conducted as follows. HepG2 and H[…] cancer cells were purchased from the Korean Cell Line Bank and cultured according to the instruction provided thereby. One hundred μL of a culture of the cells were seeded at a density of 4,000 cells/well into 96-well plates. After 24 hours, the cells were treated with the compounds for 72 hours. Then, cell viability was assayed using CCK-8 and expressed as % of the control.
# [1] = molecular target: T1, human recombinant MLK3 protein (Homo sapiens, UniProt Q16584); assay: MLK3 kinase activity assay (Eurofins, gamma-33P-ATP, filtermat scintillation counting); assay type: biochemical; conditions: human recombinant MLK3, 120 minutes at room temperature
# T1 construct: purchased Eurofins
# T1 sequence (Q16584 whole entry): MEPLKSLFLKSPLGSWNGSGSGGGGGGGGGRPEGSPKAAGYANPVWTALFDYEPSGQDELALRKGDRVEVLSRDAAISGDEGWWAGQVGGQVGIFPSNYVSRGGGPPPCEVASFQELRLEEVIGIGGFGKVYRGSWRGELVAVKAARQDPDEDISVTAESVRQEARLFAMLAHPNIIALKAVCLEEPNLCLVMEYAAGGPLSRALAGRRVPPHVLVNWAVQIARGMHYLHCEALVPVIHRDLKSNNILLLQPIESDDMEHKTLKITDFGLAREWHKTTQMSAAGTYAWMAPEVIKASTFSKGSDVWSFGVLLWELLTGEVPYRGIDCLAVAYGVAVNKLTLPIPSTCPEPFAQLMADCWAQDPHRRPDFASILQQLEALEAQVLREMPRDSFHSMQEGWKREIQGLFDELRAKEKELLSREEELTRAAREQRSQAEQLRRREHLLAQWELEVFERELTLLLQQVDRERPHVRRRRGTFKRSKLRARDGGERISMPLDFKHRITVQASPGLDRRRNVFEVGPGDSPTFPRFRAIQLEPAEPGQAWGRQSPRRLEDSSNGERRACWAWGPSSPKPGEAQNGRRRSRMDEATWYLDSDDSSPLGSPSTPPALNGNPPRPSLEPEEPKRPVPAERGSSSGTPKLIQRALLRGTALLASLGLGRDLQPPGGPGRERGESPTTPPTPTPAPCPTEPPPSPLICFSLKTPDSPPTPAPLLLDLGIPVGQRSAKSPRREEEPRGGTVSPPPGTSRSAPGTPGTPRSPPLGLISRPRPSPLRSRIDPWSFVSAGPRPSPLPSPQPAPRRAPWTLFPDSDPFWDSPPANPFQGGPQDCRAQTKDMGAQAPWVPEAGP
# Protocol: (§2) Compounds 1 to 119 synthesized in Example 1 according to the present disclosure were assayed for inhibitory activity against MLK3/LRRK2 enzymes and anticancer activity against HepG2/HS746T cancer cells, and the results are summarized in Table 1, below.
# (§3) Inhibitory activity against MLK3 and LRRK2 enzymes was evaluated in Eurofins. In brief, human recombinant MLK3 protein was mixed with the compounds in a reaction buffer (8 mM MOPS (pH 7.0), 0.2 mM EDTA, 0.33 mg/mL myelin basic protein, 5 mM DTT) to which a mixture of 10 mM magnesium acetate and gamma-33P-ATP was then added before incubation at room temperature for 120 minutes. Afterward, the reaction was terminated with 0.5% phosphoric acid. Ten μL of the total mixture was spotted onto a P30 filtermat which was then washed four times for 4 minutes with 0.425% phosphoric acid and once in methanol prior to scintillation counting. Values for the activity of MLK3 were expressed as % of the control. For the activity of LRRK2, human recombinant LRRK2 protein was mixed with the compounds in a reaction buffer (50 mM HEPES (pH 8.0), 0.2 mM EDTA, 0.01% Brij-35, 1% (w/v) BSA, 5 mM DTT, 250 uM substrate peptide RLGRDKYKTLRQIRQ) and then reacted with a mixture of 10 mM magnesium acetate and gamma-33P-ATP at room temperature for 40 minutes. Afterward, the reaction was terminated with 0.5% phosphoric acid. Ten μL of the total mixture was spotted onto a P30 filtermat which was then washed four times for 4 minutes with 0.425% phosphoric acid and once in methanol prior to scintillation counting. Values for the activity of LRRK2 were expressed as % of the control.
# HS746T cancer cells = assay: Anticancer activity, cell viability by CCK-8, HS746T; assay type: cell-based; conditions: 72 hours
# Protocol: as §1
# [2] = molecular target: T2, human recombinant LRRK2 protein (Homo sapiens, UniProt Q5S007); assay: LRRK2 kinase activity assay (Eurofins, gamma-33P-ATP, filtermat scintillation counting); assay type: biochemical; conditions: human recombinant LRRK2, 40 minutes at room temperature
# T2 construct: purchased Eurofins
# T2 sequence (Q5S007 whole entry): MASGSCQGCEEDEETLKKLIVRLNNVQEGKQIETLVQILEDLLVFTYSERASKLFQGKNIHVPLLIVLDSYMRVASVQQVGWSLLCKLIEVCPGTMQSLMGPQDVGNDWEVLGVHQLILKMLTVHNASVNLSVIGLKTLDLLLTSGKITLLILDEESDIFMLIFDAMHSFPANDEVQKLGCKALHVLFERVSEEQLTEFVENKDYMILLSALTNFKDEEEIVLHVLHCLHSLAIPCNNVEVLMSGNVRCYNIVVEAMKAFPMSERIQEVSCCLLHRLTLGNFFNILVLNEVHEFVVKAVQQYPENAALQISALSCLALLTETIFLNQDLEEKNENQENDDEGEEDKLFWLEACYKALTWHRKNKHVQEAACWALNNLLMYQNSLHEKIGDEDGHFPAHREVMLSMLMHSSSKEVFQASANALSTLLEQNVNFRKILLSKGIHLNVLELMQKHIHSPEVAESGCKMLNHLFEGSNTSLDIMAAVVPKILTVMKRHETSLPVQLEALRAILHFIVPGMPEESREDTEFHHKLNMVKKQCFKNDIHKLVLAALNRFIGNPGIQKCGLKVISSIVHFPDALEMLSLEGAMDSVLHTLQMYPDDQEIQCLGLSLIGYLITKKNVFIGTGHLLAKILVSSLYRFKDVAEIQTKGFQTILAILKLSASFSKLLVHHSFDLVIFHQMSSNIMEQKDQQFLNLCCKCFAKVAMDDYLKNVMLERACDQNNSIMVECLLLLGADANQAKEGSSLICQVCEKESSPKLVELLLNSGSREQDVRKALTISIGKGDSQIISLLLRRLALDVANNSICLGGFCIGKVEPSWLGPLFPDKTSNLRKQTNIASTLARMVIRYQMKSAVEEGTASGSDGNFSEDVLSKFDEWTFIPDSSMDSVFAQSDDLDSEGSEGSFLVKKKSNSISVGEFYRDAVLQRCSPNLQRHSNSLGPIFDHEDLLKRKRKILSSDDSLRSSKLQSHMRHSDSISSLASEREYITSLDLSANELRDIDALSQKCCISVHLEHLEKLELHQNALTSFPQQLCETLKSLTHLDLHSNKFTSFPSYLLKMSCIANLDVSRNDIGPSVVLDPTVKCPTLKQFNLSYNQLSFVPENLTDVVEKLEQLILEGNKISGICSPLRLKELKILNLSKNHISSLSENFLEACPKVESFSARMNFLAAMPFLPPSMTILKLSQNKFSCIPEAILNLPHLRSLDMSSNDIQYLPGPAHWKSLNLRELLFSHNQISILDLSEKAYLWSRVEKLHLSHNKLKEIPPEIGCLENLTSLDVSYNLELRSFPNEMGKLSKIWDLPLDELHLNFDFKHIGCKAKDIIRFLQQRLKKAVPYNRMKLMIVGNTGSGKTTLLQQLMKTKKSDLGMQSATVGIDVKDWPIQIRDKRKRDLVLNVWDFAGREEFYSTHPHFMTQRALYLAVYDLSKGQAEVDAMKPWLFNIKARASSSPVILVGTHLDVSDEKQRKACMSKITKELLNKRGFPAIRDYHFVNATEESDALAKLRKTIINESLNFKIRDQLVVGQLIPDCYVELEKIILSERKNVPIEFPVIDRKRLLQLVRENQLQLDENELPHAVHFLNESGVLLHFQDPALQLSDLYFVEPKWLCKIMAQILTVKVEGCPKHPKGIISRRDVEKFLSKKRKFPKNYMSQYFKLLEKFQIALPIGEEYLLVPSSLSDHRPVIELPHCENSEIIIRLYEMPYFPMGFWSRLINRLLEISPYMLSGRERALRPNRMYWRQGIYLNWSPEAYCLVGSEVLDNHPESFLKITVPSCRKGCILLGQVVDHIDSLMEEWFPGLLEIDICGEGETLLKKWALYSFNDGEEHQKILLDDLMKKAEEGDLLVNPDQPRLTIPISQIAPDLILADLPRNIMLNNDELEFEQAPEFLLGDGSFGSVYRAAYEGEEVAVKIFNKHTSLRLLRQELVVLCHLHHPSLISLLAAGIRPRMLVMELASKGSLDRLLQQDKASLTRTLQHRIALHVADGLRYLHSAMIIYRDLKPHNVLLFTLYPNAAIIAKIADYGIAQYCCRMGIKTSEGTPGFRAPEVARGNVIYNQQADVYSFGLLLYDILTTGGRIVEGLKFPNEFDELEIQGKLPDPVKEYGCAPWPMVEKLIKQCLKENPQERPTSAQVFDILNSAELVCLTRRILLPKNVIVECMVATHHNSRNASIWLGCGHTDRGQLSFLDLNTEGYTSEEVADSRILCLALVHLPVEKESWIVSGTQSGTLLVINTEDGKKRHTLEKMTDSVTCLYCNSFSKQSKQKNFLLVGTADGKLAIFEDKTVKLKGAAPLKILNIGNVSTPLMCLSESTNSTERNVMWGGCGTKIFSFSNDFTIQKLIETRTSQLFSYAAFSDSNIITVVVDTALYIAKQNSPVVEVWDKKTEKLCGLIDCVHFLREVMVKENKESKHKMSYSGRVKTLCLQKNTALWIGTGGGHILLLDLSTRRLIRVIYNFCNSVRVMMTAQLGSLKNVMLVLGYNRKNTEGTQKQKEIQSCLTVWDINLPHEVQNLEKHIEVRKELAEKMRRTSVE
# Protocol: as §2, §3
SMILES,IC50 [1] [nM],IC50 [2] [nM],Cell viability (% of Con. 10 μM) HepG2 (HepG2 cancer cells),Cell viability (% of Con. 10 μM) HS746T (HS746T cancer cells)
"CP(C)(=O)c1ccccc1Nc1nc(Nc2ccc3nc(S)sc3c2)ncc1Cl [compound 23, (2-((5-Chloro-2-((2-mercaptobenzo[d]thiazol-6-yl)amino)pyrimidin-4-yl)amino)phenyl)dimethylphosphine oxide]",10 to 100,10 to 100,27 % of Con.,26 % of Con.
"Cc1cccc2sc(Nc3ncc(Cl)c(Nc4ccccc4P(C)(C)=O)n3)nc12 [compound 27, (2-((5-Chloro-2-((4-methylbenzo[d]thiazol-2-yl)amino)pyrimidin-4-yl)amino)phenyl)dimethylphosphine oxide]",100 to 1000,> 1000,81 % of Con.,74 % of Con.
"CP(C)(=O)c1ccccc1Nc1ncc(Cl)c(Nc2ccccc2P(C)(C)=O)n1 [compound 30, (((5-Chloropyrimidin-2,4-diyl)bis(azanediyl))bis(2,1-phenylene)) bis(dimethylphosphineoxide)]",> 1000,> 1000,102 % of Con.,85 % of Con.
"CN(C)c1ncc(F)c(NC2CCN(S(C)(=O)=O)CC2)n1 [compound 37, 5-Fluoro-N^2,N^2-dimethyl-N^4-(1-(methylsulfonyl)piperidin-4-yl) pyrimidine-2,4-diamine]",> 1000,> 1000,100 % of Con.,90 % of Con.
"CS(=O)(=O)N1CCC(Nc2nc(Nc3ccnc4c(F)cccc34)ncc2F)CC1 [compound 38, 5-Fluoro-N^2-(8-fluoroquinolin-4-yl)-N^4-(1-(methylsulfonyl)piperidin-4-yl)pyrimidine-2,4-diamine]",> 1000,100 to 1000,73 % of Con.,90 % of Con.
"CP(C)(=O)c1ccccc1Nc1nc(Nc2ccc3c(c2)CN(C(=O)C(F)(F)F)CC3)ncc1Cl [compound 46, 1-(7-((5-Chloro-4-((2-(dimethylphosphoryl)phenyl)amino)pyrimidin-2-yl)amino)-3,4-dihydroisoquinolin-2(1H)-yl)-2,2,2-trifluoroethan-1-one]",1 to 10,1 to 10,26 % of Con.,13 % of Con.
"CC(C)C1NCCc2ccc(Nc3ncc(Cl)c(Nc4ccccc4P(C)(C)=O)n3)cc21 (stereo not shown) [compound 55, (2-((5-Chloro-2-((1-isopropyl-1,2,3,4-tetrahydroisoquinolin-7-yl)amino)pyrimidin-4-yl)amino)phenyl)dimethylphosphine oxide]",1 to 10,1 to 10,19 % of Con.,2 % of Con.
"CC(C)C1c2cc(Nc3ncc(F)c(NC4CCN(S(C)(=O)=O)CC4)n3)ccc2CCN1C(=O)C(F)(F)F (stereo not shown) [compound 58, 2,2,2-Trifluoro-1-(7-((5-fluoro-4-((1-(methylsulfonyl)piperidin-4-yl)amino)pyrimidin-2-yl)amino)-1-isopropyl-3,4-dihydroisoquinolin-2(1H)-yl)ethan-1-one]",> 1000,100 to 1000,83 % of Con.,85 % of Con.

# The next lines start with results.
IC50 [1] [nM],IC50 [2] [nM],SMILES,Cell viability (% of Con. 10 μM) HepG2 (HepG2 cancer cells),Cell viability (% of Con. 10 μM) HS746T (HS746T cancer cells)
1 to 10,10 to 100,"CP(C)(=O)c1ccccc1Nc1nc(Nc2ccc3c(c2)C(=O)NCC3)ncc1Cl [compound 41, 7-((5-Chloro-4-((2-(dimethylphosphoryl)phenyl)amino)pyrimidin-2-yl)amino)-3,4-dihydroisoquinolin-1(2H)-one]",26 % of Con.,33 % of Con.
1 to 10,1 to 10,"CC1(C)c2cc(Nc3ncc(Cl)c(Nc4ccccc4P(C)(C)=O)n3)ccc2CCN1C(=O)C(F)(F)F [compound 42, 1-(7-((5-Chloro-4-((2-(dimethylphosphoryl)phenyl)amino)pyrimidin-2-yl)amino)-1,1-dimethyl-3,4-dihydroisoquinolin-2(1H)-yl)-2,2,2-trifluoroethan-1-one]",48 % of Con.,30 % of Con.
1 to 10,1 to 10,"CC1(C)NCCc2ccc(Nc3ncc(Cl)c(Nc4ccccc4P(C)(C)=O)n3)cc21 [compound 44, (2-((5-Chloro-2-((1,1-dimethyl-1,2,3,4-tetrahydroisoquinolin-7-yl)amino)pyrimidin-4-yl)amino)phenyl)dimethylphosphine oxide]",53 % of Con.,17 % of Con.
1 to 10,1 to 10,"CP(C)(=O)c1ccccc1Nc1nc(Nc2ccc3c(c2)CNCC3)ncc1Cl [compound 47, (2-((5-Chloro-2-((1,2,3,4-tetrahydroisoquinolin-7-yl)amino)pyrimidin-4-yl)amino)phenyl)dimethylphosphine oxide]",24 % of Con.,8 % of Con.
1 to 10,1 to 10,"CP(C)(=O)c1ccccc1Nc1nc(Nc2ccc3c(c2)CCN(C(=O)C(F)(F)F)C3)ncc1Cl [compound 48, 1-(6-((5-Chloro-4-((2-(dimethylphosphoryl)phenyl)amino)pyrimidin-2-yl)amino)-3,4-dihydroisoquinolin-2(1H)-yl)-2,2,2-trifluoroethan-1-one]",37 % of Con.,9 % of Con.
1 to 10,1 to 10,"CP(C)(=O)c1ccccc1Nc1nc(Nc2ccc3c(c2)CCNC3)ncc1Cl [compound 49, (2-((5-Chloro-2-((1,2,3,4-tetrahydroisoquinolin-6-yl)amino)pyrimidin-4-yl)amino)phenyl)dimethylphosphine oxide]",31 % of Con.,0.3 % of Con.
1 to 10,1 to 10,"CC1(C)CN(C(=O)C(F)(F)F)Cc2cc(Nc3ncc(Cl)c(Nc4ccccc4P(C)(C)=O)n3)ccc21 [compound 50, 1-(7-((5-Chloro-4-((2-(dimethylphosphoryl)phenyl)amino)pyrimidin-2-yl)amino)-4,4-dimethyl-3,4-dihydroisoquinolin-2(1H)-yl)-2,2,2-trifluoroethan-1-one]",20 % of Con.,2 % of Con.
1 to 10,1 to 10,"CC1NCCc2ccc(Nc3ncc(Cl)c(Nc4ccccc4P(C)(C)=O)n3)cc21 (stereo not shown) [compound 51, (2-((5-Chloro-2-((1-methyl-1,2,3,4-tetrahydroisoquinolin-7-yl)amino)pyrimidin-4-yl)amino)phenyl)dimethylphosphine oxide]",24 % of Con.,2 % of Con.
1 to 10,1 to 10,"CC1(C)CNCc2cc(Nc3ncc(Cl)c(Nc4ccccc4P(C)(C)=O)n3)ccc21 [compound 52, (2-((5-Chloro-2-((4,4-dimethyl-1,2,3,4-tetrahydroisoquinolin-7-yl)amino)pyrimidin-4-yl)amino)phenyl)dimethylphosphine oxide]",21 % of Con.,1 % of Con.
1 to 10,1 to 10,"CC(C)C1c2cc(Nc3ncc(Cl)c(Nc4ccccc4P(C)(C)=O)n3)ccc2CCN1C(=O)C(F)(F)F (stereo not shown) [compound 53, 1-(7-((5-Chloro-4-((2-(dimethylphosphoryl)phenyl)amino)pyrimidin-2-yl)amino)-1-isopropyl-3,4-dihydroisoquinolin-2(1H)-yl)-2,2,2-trifluoroethan-1-one]",23 % of Con.,14 % of Con.
1 to 10,1 to 10,"CC1c2cc(Nc3ncc(Cl)c(Nc4ccccc4P(C)(C)=O)n3)ccc2CCN1C(=O)C(F)(F)F (stereo not shown) [compound 54, 1-(7-((5-Chloro-4-((2-(dimethylphosphoryl)phenyl)amino)pyrimidin-2-yl)amino)-1-methyl-3,4-dihydroisoquinolin-2(1H)-yl)-2,2,2-trifluoroethan-1-one]",17 % of Con.,4 % of Con.
